Experimental findings from patent US10106556B2, “Heterocyclic compound” (TAKEDA PHARMACEUTICAL COMPANY LIMITED, priority 2015, dated 2018) are described below.

A word on the inhibition: it is the relative decrease from the control value, in per cent.

This test has as its target T1, His-hMAGL (recombinant polyhistidine tagged human MAGL protein) (Homo sapiens, UniProt Q99685).
T1 construct: made in house; host or cells: E. coli BL21(DE3)
T1 sequence (Q99685 1-303): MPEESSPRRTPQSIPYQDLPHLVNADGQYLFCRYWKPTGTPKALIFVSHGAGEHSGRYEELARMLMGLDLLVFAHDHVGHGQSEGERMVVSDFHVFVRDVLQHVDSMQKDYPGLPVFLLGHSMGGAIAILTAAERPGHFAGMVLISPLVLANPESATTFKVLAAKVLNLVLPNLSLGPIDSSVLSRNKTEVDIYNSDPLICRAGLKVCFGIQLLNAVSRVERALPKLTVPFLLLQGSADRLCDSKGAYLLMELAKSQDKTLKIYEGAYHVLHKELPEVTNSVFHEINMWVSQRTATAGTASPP
Put plainly: Measurement of MAGL inhibitory activity (arachidonic acid production from 2-arachidonylglycerol, RapidFire-mass spectrometry). Format: biochemical. Conditions: MAGL inhibitory rate at 10 μM test compound; 60 min preincubation with His-hMAGL, 2-arachidonylglycerol substrate, 10 min reaction at room temperature. Summed up: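 Recombinant His-tagged human MAGL converted 2-arachidonylglycerol to arachidonic acid. Reactions received acetonitrile with 3 μM arachidonic acid-d8 as internal standard, and product was quantified by RapidFire SPE (C4) with negative-mode SRM mass spectrometry. Percent inhibition was calculated against compound-free and enzyme-free controls.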
Turning to `Cc1cc(C)c(OCC2CN(C(=O)c3cc4c(cc3F)OCC(=O)N4)C2)cn1` [Example 142, 6-((3-(((4,6-dimethylpyridin-3-yl)oxy)methyl)azetidin-1-yl)carbonyl)-7-fluoro-2H-1,4-benzoxazin-3(4H)-one], the inhibition at 10 µM turned out to be 102%.
As to `O=C1COc2cc(F)c(C(=O)N3CC(COc4ccc(OC(F)(F)F)cc4)C3)cc2N1` [Example 143, 7-fluoro-6-((3-((4-(trifluoromethoxy)phenoxy)methyl)azetidin-1-yl)carbonyl)-2H-1,4-benzoxazin-3(4H)-one], the inhibition at 10 µM is 100%.
As for `O=C1COc2cnc(C(=O)N3CCC(COc4ccc(C(F)(F)F)cc4Cl)CC3)cc2N1` [Example 144, 7-((4-((2-chloro-4-(trifluoromethyl)phenoxy)methyl)piperidin-1-yl)carbonyl)-1H-pyrido[3,4-b][1,4]oxazin-2(3H)-one], the inhibition at 10 µM is 98%.
The same measure for `Cc1nc2c(cc1C(=O)N1CCC(COc3ccc(F)cc3Cl)CC1)NC(=O)CO2` [Example 145, 7-((4-((2-chloro-4-fluorophenoxy)methyl)piperidin-1-yl)carbonyl)-6-methyl-1H-pyrido[2,3-b][1,4]oxazin-2(3H)-one]: 88%.
As for `CC(C)(C)c1ccccc1OCC1CN(C(=O)c2ccc3c(c2)NC(=O)CO3)C1` [Example 146, 6-((3-((2-tert-butylphenoxy)methyl)azetidin-1-yl)carbonyl)-2H-1,4-benzoxazin-3(4H)-one], the figure is 97%; as for `O=C1COc2cc(F)c(C(=O)N3CC(COCc4ccc(Cl)cc4)C3)cc2N1` [Example 147, 6-((3-(((4-chlorobenzyl)oxy)methyl)azetidin-1-yl)carbonyl)-7-fluoro-2H-1,4-benzoxazin-3(4H)-one], 102%; as for `O=C1COc2cc(F)c(C(=O)N3CC(COCc4ccccc4Cl)C3)cc2N1` [Example 148, 6-((3-(((2-chlorobenzyl)oxy)methyl)azetidin-1-yl)carbonyl)-7-fluoro-2H-1,4-benzoxazin-3(4H)-one], 102%.
As to `O=C1COc2cc(F)c(C(=O)N3CCC(COc4ccc(-c5ccccc5)cc4)CC3)cc2N1` [Example 149, 6-((4-((biphenyl-4-yloxy)methyl)piperidin-1-yl)carbonyl)-7-fluoro-2H-1,4-benzoxazin-3(4H)-one], the inhibition at 10 µM stood at 85%.
Regarding `O=C1COc2cc(F)c(C(=O)N3CCC(COc4cccc(-c5ccccc5)c4)CC3)cc2N1` [Example 150, 6-((4-((biphenyl-3-yloxy)methyl)piperidin-1-yl)carbonyl)-7-fluoro-2H-1,4-benzoxazin-3(4H)-one], the inhibition at 10 µM turned out to be 100%.
Consider `Cc1nc2cc(OCC3CN(C(=O)c4cc5c(cc4F)OCC(=O)N5)C3)ccc2s1` [Example 151, 7-fluoro-6-((3-(((2-methyl-1,3-benzothiazol-5-yl)oxy)methyl)azetidin-1-yl)carbonyl)-2H-1,4-benzoxazin-3(4H)-one], for which the inhibition at 10 µM is 92%.
As for `Cc1nc2ccc(OCC3CN(C(=O)c4cc5c(cc4F)OCC(=O)N5)C3)cc2s1` [Example 152, 7-fluoro-6-((3-(((2-methyl-1,3-benzothiazol-6-yl)oxy)methyl)azetidin-1-yl)carbonyl)-2H-1,4-benzoxazin-3(4H)-one], the figure is 101%; as for `Cc1nc2ccc(OCC3CN(C(=O)c4cc5c(cc4F)OCC(=O)N5)C3)cc2o1` [Example 153, 7-fluoro-6-((3-(((2-methyl-1,3-benzoxazol-6-yl)oxy)methyl)azetidin-1-yl)carbonyl)-2H-1,4-benzoxazin-3(4H)-one], 100%.
The same measure for `O=C1COc2cc(F)c(C(=O)N3CC(COc4ccc5c(c4)CCC5)C3)cc2N1` [Example 154, 6-((3-((2,3-dihydro-1H-inden-5-yloxy)methyl)azetidin-1-yl)carbonyl)-7-fluoro-2H-1,4-benzoxazin-3(4H)-one]: 95%.
In the case of `O=C1COc2cc(F)c(C(=O)N3CC(COc4ccc5c(c4)CCO5)C3)cc2N1` [Example 155, 6-((3-((2,3-dihydro-1-benzofuran-5-yloxy)methyl)azetidin-1-yl)carbonyl)-7-fluoro-2H-1,4-benzoxazin-3(4H)-one], the inhibition at 10 µM stood at 101%.
Take `O=C1COc2cc(F)c(C(=O)N3CC(COc4ccc5[nH]ncc5c4)C3)cc2N1` [Example 156, 7-fluoro-6-((3-((1H-indazol-5-yloxy)methyl)azetidin-1-yl)carbonyl)-2H-1,4-benzoxazin-3(4H)-one]: the inhibition at 10 µM came to 100%.
Turning to `O=C1COc2cc(F)c(C(=O)N3CC(COc4ccc5cn[nH]c5c4)C3)cc2N1` [Example 157, 7-fluoro-6-((3-((1H-indazol-6-yloxy)methyl)azetidin-1-yl)carbonyl)-2H-1,4-benzoxazin-3(4H)-one], the inhibition at 10 µM was 100%.
As for `O=C1COc2cc(F)c(C(=O)N3CC(COc4ccc(F)c(F)c4)C3)cc2N1` [Example 158, 6-((3-((3,4-difluorophenoxy)methyl)azetidin-1-yl)carbonyl)-7-fluoro-2H-1,4-benzoxazin-3(4H)-one], the figure is 103%.
`CC(C)c1ccc(OCC2CN(C(=O)c3cc4c(cc3F)OCC(=O)N4)C2)cc1` [Example 159, 7-fluoro-6-((3-((4-isopropylphenoxy)methyl)azetidin-1-yl)carbonyl)-2H-1,4-benzoxazin-3(4H)-one]: the inhibition at 10 µM was 103%.
Regarding `CC(C)c1ccccc1OCC1CN(C(=O)c2cc3c(cc2F)OCC(=O)N3)C1` [Example 160, 7-fluoro-6-((3-((2-isopropylphenoxy)methyl)azetidin-1-yl)carbonyl)-2H-1,4-benzoxazin-3(4H)-one], the inhibition at 10 µM worked out at 100%.
Regarding `Cc1ccc(OCC2CN(C(=O)c3cc4c(cc3F)OCC(=O)N4)C2)cc1` [Example 161, 7-fluoro-6-((3-((4-methylphenoxy)methyl)azetidin-1-yl)carbonyl)-2H-1,4-benzoxazin-3(4H)-one], the inhibition at 10 µM stood at 102%.
The same measure for `Cc1cccc(OCC2CN(C(=O)c3cc4c(cc3F)OCC(=O)N4)C2)c1` [Example 162, 7-fluoro-6-((3-((3-methylphenoxy)methyl)azetidin-1-yl)carbonyl)-2H-1,4-benzoxazin-3(4H)-one]: 102%.
`Cc1ccc(OCC2CN(C(=O)c3cc4c(cc3F)OCC(=O)N4)C2)cc1C` [Example 163, 6-((3-((3,4-dimethylphenoxy)methyl)azetidin-1-yl)carbonyl)-7-fluoro-2H-1,4-benzoxazin-3(4H)-one]: the inhibition at 10 µM was 100%.
In the case of `Cc1ccc(OCC2CN(C(=O)c3cc4c(cc3F)OCC(=O)N4)C2)c(F)c1` [Example 164, 7-fluoro-6-((3-((2-fluoro-4-methylphenoxy)methyl)azetidin-1-yl)carbonyl)-2H-1,4-benzoxazin-3(4H)-one], the inhibition at 10 µM amounted to 102%.
The same measure for `Cc1ccc(OCC2CN(C(=O)c3cc4c(cc3F)OCC(=O)N4)C2)c(C)c1` [Example 165, 6-((3-((2,4-dimethylphenoxy)methyl)azetidin-1-yl)carbonyl)-7-fluoro-2H-1,4-benzoxazin-3(4H)-one]: 103%.
The same measure for `O=C1COc2cc(F)c(C(=O)N3CC(COc4ccccc4C4CCCC4)C3)cc2N1` [Example 166, 6-((3-((2-cyclopentylphenoxy)methyl)azetidin-1-yl)carbonyl)-7-fluoro-2H-1,4-benzoxazin-3(4H)-one]: 98%; for `CC(C)(C)c1ccccc1OCC1CN(C(=O)c2cc3c(cc2F)OCC(=O)N3)C1` [Example 167, 6-((3-((2-tert-butylphenoxy)methyl)azetidin-1-yl)carbonyl)-7-fluoro-2H-1,4-benzoxazin-3(4H)-one]: 100%; for `O=C1COc2cc(F)c(C(=O)N3CC(COc4ccccc4C4CC4)C3)cc2N1` [Example 168, 6-((3-((2-cyclopropylphenoxy)methyl)azetidin-1-yl)carbonyl)-7-fluoro-2H-1,4-benzoxazin-3(4H)-one]: 101%.
As for `O=C1COc2cc(F)c(C(=O)N3CC(COc4ccc5ccccc5c4)C3)cc2N1` [Example 169, 7-fluoro-6-((3-((2-naphthyloxy)methyl)azetidin-1-yl)carbonyl)-2H-1,4-benzoxazin-3(4H)-one], the inhibition at 10 µM came out at 97%.
`O=C1COc2cc(F)c(C(=O)N3CC(COc4ccc5ncccc5c4)C3)cc2N1` [Example 170, 7-fluoro-6-((3-((quinolin-6-yloxy)methyl)azetidin-1-yl)carbonyl)-2H-1,4-benzoxazin-3(4H)-one]: the inhibition at 10 µM turned out to be 104%.
With `O=C1COc2cc(F)c(C(=O)N3CC(COc4ccc5cccnc5c4)C3)cc2N1` [Example 171, 7-fluoro-6-((3-((quinolin-7-yloxy)methyl)azetidin-1-yl)carbonyl)-2H-1,4-benzoxazin-3(4H)-one], the inhibition at 10 µM amounted to 98%.
Take `O=C1COc2cc(F)c(C(=O)N3CC(COc4ccc5ccncc5c4)C3)cc2N1` [Example 172, 7-fluoro-6-((3-((isoquinolin-7-yloxy)methyl)azetidin-1-yl)carbonyl)-2H-1,4-benzoxazin-3(4H)-one]: the inhibition at 10 µM turned out to be 100%.
Turning to `O=C1COc2cc(F)c(C(=O)N3CC(COc4ccc5cnccc5c4)C3)cc2N1` [Example 173, 7-fluoro-6-((3-((isoquinolin-6-yloxy)methyl)azetidin-1-yl)carbonyl)-2H-1,4-benzoxazin-3(4H)-one], the inhibition at 10 µM came to 98%.
